Measured values taken from PMC4266366 (Medical Science Monitor : International Medical Journal of …, 2014).

System: BACE expression in transfected INR-32 human neuroblastoma cells
Test: Selection of BACE1 siRNAs: inhibition of BACE expression in transfected cells
Assay type: cell-based
Settings: BACE1 siRNA (75 pmoles) with Oligofectamin reagent

Substance: siRNA A5 3: siRNA A5 3 - 3′GCAAGGAGUACAACUAUGAUU 5′, 3′GGAGGGAGCAUGAUCAUUGUU5′ (chemistry not given here)
- inhibition of BACE expression: 86.5%
